# Data reported in patent US7365231B2, “Compound with antitumor activity and preparation method therefor” (National Taiwan University of Science & Technology, priority 2005, dated 2008).
# How the values were obtained:
# Format in all cases: cell-based
# 786-0 = assay: NCI panel growth inhibition, sulforhodamine B; details: Homo sapiens; 786-0, Renal cancer; drug for last 48 h of 72 h
# Source text: (§1) Comparison of anticancer activities of the 1,3-substituted adamantane derivatives, 1,3-bis(4-aminophenyl)adamantane (1,3-DPANH2), 1,3-bis(4-(4-aminophenoxy)phenyl)adamantane (1,3-DPAONH2), 1,3-bis(4-(4-amino-3-hydroxy)phenyl)adamantane (1,3-DPA/OH/NH2) and 1,3-bis(4-(4-amino-2-trifluoromethylphenoxy)phenyl)adamantane (1,3-DPA/CF3/NH2) as shown in FIG. 1 were synthesized in the present invention. Those compounds were submitted to the National Cancer Institute for anticancer assay in culture against a standard panel of cell lines. […] To further confirm that the different substituents (CF3 and OH) on the phenyl ring of 1,3-DPAONH2 affect the growth inhibition of cancer cells. […] The transformations of 1,3-DPAONH2 to 1,3-DPA/OH/NH2 led to a remarked enhancement of anticancer activity toward all the tested cancer lines. The role of the OH group at the ortho position of the NH2 on growth inhibition is remarkable. In addition, one compound (1,3-DPA/OH/NH2) was confirmed to have an IC50 of <1 μM against one of the cells (BT-549 breast carcinoma). Comparison of anticancer activities of 1,3-substituted diaminophenyladamantane derivatives, the following order of potency against the tested cancer lines was observed: 1,3-DPA/OH/NH2>1,3-DPAONH2>1,3-DPANH2>1,3-DPA/CF3/NH2.
# CCRF-CEM = assay: NCI panel growth inhibition, sulforhodamine B; details: Homo sapiens, Leukemia, drug for last 48 h of 72 h
# Source text: as §1
# EKVX = assay: NCI panel growth inhibition, sulforhodamine B; details: Homo sapiens, NSCLC, drug for last 48 h of 72 h
# Source text: as §1
# HOP-62 = assay: NCI panel growth inhibition, sulforhodamine B; details: Homo sapiens; HOP-62, NSCLC; drug for last 48 h of 72 h
# Source text: as §1
# HS 578T = assay: NCI panel growth inhibition, sulforhodamine B; details: Homo sapiens, Breast cancer, drug for last 48 h of 72 h
# Source text: as §1
# HT29 = assay: NCI panel growth inhibition, sulforhodamine B; details: Homo sapiens, HT-29; HT29, Colon cancer; drug for last 48 h of 72 h
# Source text: as §1
# IGROV1 = assay: NCI panel growth inhibition, sulforhodamine B; details: Homo sapiens, IGROV-1; IGROV1, Ovarian cancer; drug for last 48 h of 72 h
# Source text: as §1
# MALME-3M = assay: NCI panel growth inhibition, sulforhodamine B; details: Homo sapiens, Melanoma, drug for last 48 h of 72 h
# Source text: as §1
# MDA-MB-231 = assay: NCI panel growth inhibition, sulforhodamine B; details: Homo sapiens; MDA-MB-231, Breast cancer; drug for last 48 h of 72 h
# Source text: as §1
# MDA-N = assay: NCI panel growth inhibition, sulforhodamine B; details: Homo sapiens, Breast cancer, drug for last 48 h of 72 h
# Source text: as §1
# MOLT-4 = assay: NCI panel growth inhibition, sulforhodamine B; details: Homo sapiens; MOLT-4, Leukemia; drug for last 48 h of 72 h
# Source text: as §1
# NCI-H23 = assay: NCI panel growth inhibition, sulforhodamine B; details: Homo sapiens; NCI-H23, NSCLC; drug for last 48 h of 72 h
# Source text: as §1
# NCI-H322M = assay: NCI panel growth inhibition, sulforhodamine B; details: Homo sapiens, NSCLC, drug for last 48 h of 72 h
# Source text: as §1
# OVCAR-5 = assay: NCI panel growth inhibition, sulforhodamine B; details: Homo sapiens; OVCAR-5, Ovarian cancer; drug for last 48 h of 72 h
# Source text: as §1
# RPMI-8226 = assay: NCI panel growth inhibition, sulforhodamine B; details: Homo sapiens; RPMI-8226, Leukemia; drug for last 48 h of 72 h
# Source text: as §1
# RXF-393 = assay: NCI panel growth inhibition, sulforhodamine B; details: Homo sapiens; RXF-393, Renal cancer; drug for last 48 h of 72 h
# Source text: as §1
# SF-268 = assay: NCI panel growth inhibition, sulforhodamine B; details: Homo sapiens; SF-268, CNS cancer; drug for last 48 h of 72 h
# Source text: as §1
# SK-MEL-28 = assay: NCI panel growth inhibition, sulforhodamine B; details: Homo sapiens; SK-MEL-28, Melanoma; drug for last 48 h of 72 h
# Source text: as §1
# SK-MEL-5 = assay: NCI panel growth inhibition, sulforhodamine B; details: Homo sapiens; SK-MEL-5, Melanoma; drug for last 48 h of 72 h
# Source text: as §1
# T-47D = assay: NCI panel growth inhibition, sulforhodamine B; details: Homo sapiens, T47D, Breast cancer, drug for last 48 h of 72 h
# Source text: as §1
# TK-10 = assay: NCI panel growth inhibition, sulforhodamine B; details: Homo sapiens; TK-10, Renal cancer; drug for last 48 h of 72 h
# Source text: as §1
# U251 = assay: NCI panel growth inhibition, sulforhodamine B; details: Homo sapiens, U-251; U251, CNS cancer; drug for last 48 h of 72 h
# Source text: as §1
# UACC-257 = assay: NCI panel growth inhibition, sulforhodamine B; details: Homo sapiens; UACC-257, Melanoma; drug for last 48 h of 72 h
# Source text: as §1
# UACC-62 = assay: NCI panel growth inhibition, sulforhodamine B; details: Homo sapiens; UACC-62, Melanoma; drug for last 48 h of 72 h
# Source text: as §1
# [1] = system: NCI's human cancer cell lines; assay: NCI panel growth inhibition, whole panel summary; details: in vitro
# Source text: as §1, with “1,3-DPA/OH/NH2>1,3-DPAONH2>1,3-DPANH2>1,3-DPA/CF3/NH2. […]” for “1,3-DPA/OH/NH2>1,3-DPAONH2>1,3-DPANH2>1,3-DPA/CF3/NH2.”
compound,measurement,setting,value
"Nc1ccc(Oc2ccc(C34CC5CC(C3)CC(c3ccc(Oc6ccc(N)cc6)cc3)(C5)C4)cc2)cc1 [1,3-DPAONH2, 1,3-bis(4-(4-aminophenoxy)phenyl)adamantane]",IC50,786-0,8.09 µM
same,IC50,CCRF-CEM,4.83 µM
same,IC50,EKVX,15.6 µM
same,IC50,HOP-62,10.7 µM
same,IC50,HS 578T,11.7 µM
same,IC50,HT29,7.12 µM
same,IC50,IGROV1,2.64 µM
same,IC50,MALME-3M,14.6 µM
same,IC50,MDA-MB-231,16.9 µM
same,IC50,MDA-N,4.33 µM
same,IC50,MOLT-4,3.81 µM
same,IC50,NCI-H23,6.92 µM
same,IC50,NCI-H322M,8.84 µM
same,IC50,OVCAR-5,19.1 µM
same,IC50,RPMI-8226,4.14 µM
same,IC50,RXF-393,7.78 µM
same,IC50,SF-268,5.6 µM
same,IC50,SK-MEL-28,18.8 µM
same,IC50,SK-MEL-5,13.8 µM
same,IC50,T-47D,5.67 µM
same,IC50,TK-10,24.9 µM
same,IC50,U251,7.9 µM
same,IC50,UACC-257,12.5 µM
same,IC50,UACC-62,9.64 µM
"Nc1ccc(Oc2ccc(C34CC5CC(C3)CC(c3ccc(Oc6ccc(N)c(O)c6)cc3)(C5)C4)cc2)cc1O [1,3-DPA/OH/NH2, 1,3-bis-(4-(4-amino-3-hydroxyphenoxy)phenyl)adamantane]",IC50,786-0,2.83 µM
same,IC50,EKVX,1.68 µM
same,IC50,HOP-62,5.53 µM
same,IC50,HS 578T,1.63 µM
same,IC50,IGROV1,1.38 µM
same,IC50,MALME-3M,1.93 µM
same,IC50,MDA-MB-231,1.62 µM
same,IC50,MDA-N,1.58 µM
same,IC50,MOLT-4,2.42 µM
same,IC50,NCI-H23,1.86 µM
same,IC50,NCI-H322M,1.26 µM
same,IC50,RPMI-8226,2.54 µM
same,IC50,RXF-393,1.61 µM
same,IC50,SF-268,1.16 µM
same,IC50,SK-MEL-28,2.74 µM
same,IC50,SK-MEL-5,1.88 µM
same,IC50,T-47D,1.66 µM
same,IC50,TK-10,5.57 µM
same,IC50,U251,1.3 µM
same,IC50,UACC-257,2.23 µM
same,IC50,UACC-62,2.65 µM
same,growth inhibitory activity against the tested cancer cell lines (in words),[1],strong growth inhibitory activities
"Nc1ccc(C2(c3ccc(N)cc3)C3CC4CC(C3)CC2C4)cc1 [2,2-DPANH2, 2,2-bis(4-aminophenyl)adamantane]",IC50,CCRF-CEM,3.76 µM
same,IC50,EKVX,16.4 µM
same,IC50,HOP-62,13.6 µM
same,IC50,HT29,0.1 µM
same,IC50,IGROV1,9.6 µM
same,IC50,MDA-MB-231,17.4 µM
same,IC50,MDA-N,18.6 µM
same,IC50,MOLT-4,4.96 µM
same,IC50,NCI-H23,19.9 µM
same,IC50,OVCAR-5,15.8 µM
same,IC50,RXF-393,2.74 µM
same,IC50,SF-268,1.57 µM
same,IC50,SK-MEL-28,14.9 µM
same,IC50,T-47D,14.4 µM
same,IC50,TK-10,18 µM
same,IC50,U251,18.6 µM
same,IC50,UACC-257,19.2 µM
same,IC50,UACC-62,16.3 µM
"Nc1ccc(Oc2ccc(C34CC5CC(C3)CC(c3ccc(Oc6ccc(N)cc6C(F)(F)F)cc3)(C5)C4)cc2)c(C(F)(F)F)c1 [1,3-DPA/CF3/NH2, 1,3-bis-(4-(4-amino-2-trifluoromethylphenoxy)phenyl)adamantane]",IC50,786-0,31.5 µM
same,IC50,CCRF-CEM,36.2 µM
same,IC50,EKVX,15.4 µM
same,IC50,HOP-62,18.2 µM
same,IC50,HS 578T,17.1 µM
same,IC50,HT29,17.2 µM
same,IC50,IGROV1,19.5 µM
same,IC50,MALME-3M,22.2 µM
same,IC50,MDA-MB-231,15.2 µM
same,IC50,MDA-N,36.7 µM
same,IC50,MOLT-4,35.7 µM
same,IC50,NCI-H23,17.7 µM
same,IC50,NCI-H322M,20.1 µM
same,IC50,OVCAR-5,27 µM
same,IC50,RXF-393,11.1 µM
same,IC50,SF-268,17.4 µM
same,IC50,SK-MEL-28,43.2 µM
same,IC50,SK-MEL-5,22 µM
same,IC50,T-47D,15.1 µM
same,IC50,TK-10,16.1 µM
same,IC50,U251,14.5 µM
same,IC50,UACC-257,18.7 µM
same,IC50,UACC-62,22.1 µM
"Nc1ccc(Oc2ccc(C3(c4ccc(Oc5ccc(N)cc5)cc4)C4CC5CC(C4)CC3C5)cc2)cc1 [2,2-DPAONH2, 2,2-bis(4-(4-aminophenoxy)phenyl)adamantane]",IC50,786-0,3.07 µM
same,IC50,CCRF-CEM,3.03 µM
same,IC50,EKVX,4.76 µM
same,IC50,HOP-62,11.8 µM
same,IC50,HS 578T,4.91 µM
same,IC50,HT29,2.96 µM
same,IC50,IGROV1,5.88 µM
same,IC50,MALME-3M,13.6 µM
same,IC50,MDA-MB-231,17 µM
same,IC50,MDA-N,2.74 µM
same,IC50,MOLT-4,4.27 µM
same,IC50,NCI-H23,5.15 µM
same,IC50,NCI-H322M,0.184 µM
same,IC50,OVCAR-5,15.3 µM
same,IC50,RPMI-8226,3.01 µM
same,IC50,SF-268,6.44 µM
same,IC50,SK-MEL-28,10.5 µM
same,IC50,SK-MEL-5,8.38 µM
same,IC50,TK-10,14.3 µM
same,IC50,U251,2.81 µM
same,IC50,UACC-257,5.76 µM
same,IC50,UACC-62,17.7 µM
"Nc1ccc(Oc2ccc(C3(c4ccc(Oc5ccc(N)c(O)c5)cc4)C4CC5CC(C4)CC3C5)cc2)cc1O [DPA, 2,2-bis(4-(4-amino-3-hydroxyphenoxy)phenyl)adamantane]",IC50,786-0,1.88 µM
same,IC50,CCRF-CEM,3.08 µM
same,IC50,EKVX,2.63 µM
same,IC50,HOP-62,2.11 µM
same,IC50,HS 578T,2.35 µM
same,IC50,HT29,1.81 µM
same,IC50,IGROV1,1.75 µM
same,IC50,MALME-3M,2.02 µM
same,IC50,MDA-MB-231,1.82 µM
same,IC50,MDA-N,2.14 µM
same,IC50,MOLT-4,1.45 µM
same,IC50,NCI-H23,1.84 µM
same,IC50,NCI-H322M,1.41 µM
same,IC50,OVCAR-5,2.08 µM
same,IC50,RPMI-8226,1.92 µM
same,IC50,RXF-393,1.82 µM
same,IC50,SF-268,1.62 µM
same,IC50,SK-MEL-28,1.68 µM
same,IC50,SK-MEL-5,1.56 µM
same,IC50,T-47D,4.13 µM
same,IC50,TK-10,2.16 µM
same,IC50,U251,1.7 µM
same,IC50,UACC-257,2.32 µM
same,IC50,UACC-62,3.21 µM
same,growth inhibitory activity against the tested cancer cell lines (in words),[1],strong growth inhibitory activities
"Nc1ccc(C23CC4CC(C2)CC(c2ccc(N)cc2)(C4)C3)cc1 [1,3-DPANH2, 1,3-bis(4-aminophenyl)adamantane]",IC50,786-0,38.5 µM
same,IC50,CCRF-CEM,15.7 µM
same,IC50,EKVX,36.6 µM
same,IC50,HOP-62,60 µM
same,IC50,IGROV1,> 100 µM
same,IC50,MDA-MB-231,19.6 µM
same,IC50,MDA-N,37.7 µM
same,IC50,MOLT-4,11.3 µM
same,IC50,NCI-H23,59.6 µM
same,IC50,OVCAR-5,27.6 µM
same,IC50,RPMI-8226,10.7 µM
same,IC50,SF-268,45.2 µM
same,IC50,SK-MEL-28,15 µM
same,IC50,SK-MEL-5,13.1 µM
same,IC50,TK-10,> 100 µM
same,IC50,U251,14.3 µM
same,IC50,UACC-257,75.5 µM
same,IC50,UACC-62,29 µM
